Data reported in the NIST ThermoML archive (doi:10.1016/j.tca.2005.01.064).

Tests used:
[1] = excess molar enthalpy (molar enthalpy of mixing); xn = mol fraction of the nth substance listed; conditions: 308.15 K, 101.33 kPa, Liquid, Flow calorimetry
[2] = 308.15 K; 101.33 kPa; Liquid; Vibrating tube method

OCCO [1,2-ethanediol] + CCO
[1]
Conditions	excess molar enthalpy [kcal/mol]
x1 = 0.0719	0.0526
x1 = 0.1341	0.0833
x1 = 0.1886	0.103
x1 = 0.2365	0.115
x1 = 0.3173	0.126
x1 = 0.3826	0.131
x1 = 0.4817	0.131
x1 = 0.5533	0.125
x1 = 0.6502	0.115
x1 = 0.7361	0.099
x1 = 0.788	0.0846
x1 = 0.8479	0.0684
x1 = 0.8815	0.0565
x1 = 0.9177	0.0413
x1 = 0.9371	0.0333
x1 = 0.9571	0.0229
x1 = 0.9781	0.012

OCCOCCO [diethylene glycol]
Conditions	mass density [kg/m3]
[2]	1105.65

OCCOCCO [diethylene glycol] + CCO
[1]
Conditions	excess molar enthalpy [kcal/mol]
x1 = 0.0434	0.0185
x1 = 0.0833	0.0319
x1 = 0.1199	0.0422
x1 = 0.1537	0.0483
x1 = 0.2142	0.0582
x1 = 0.2663	0.063
x1 = 0.3528	0.0668
x1 = 0.4208	0.0668
x1 = 0.5216	0.0644
x1 = 0.6206	0.0565
x1 = 0.6856	0.0507
x1 = 0.7658	0.0417
x1 = 0.8135	0.0353
x1 = 0.8674	0.0262
x1 = 0.8973	0.0217
x1 = 0.929	0.0152
x1 = 0.9632	0.00786

CCO [ethanol]
Conditions	mass density [kg/m3]
[2]	776.41

OCCOCCOCCO [triethylene glycol]
Conditions	mass density [kg/m3]
[2]	1112.09

OCCOCCOCCO [triethylene glycol] + CCO
[1]
Conditions	excess molar enthalpy [kcal/mol]
x1 = 0.0313	0.0319
x1 = 0.0606	0.0563
x1 = 0.0883	0.077
x1 = 0.1143	0.0905
x1 = 0.1623	0.111
x1 = 0.2047	0.125
x1 = 0.2792	0.141
x1 = 0.3405	0.145
x1 = 0.4365	0.15
x1 = 0.5376	0.146
x1 = 0.6078	0.145
x1 = 0.6992	0.132
x1 = 0.756	0.117
x1 = 0.823	0.0973
x1 = 0.8613	0.0786
x1 = 0.9029	0.0595
x1 = 0.949	0.0324
